Results: patent US11547667B2 (priority 2007, dated 2023)

Test system: CD4 T cells from OT-II donor mice
Assay: In vivo CD4 T cell activation, CFSE dilution of transferred OT-II T cells
Parameters: species or system C57BL6J mice
Conditions: footpad injection, with CpG adjuvant, three days after immunization
Method: Subsequently, immunization experiments were performed by injecting one footpad with free OVA or with nanoparticles composed of either PLA or PLGA that encapsulated an equivalent amount of OVA as a model antigen. All antigenic mixtures also contained CpG (a TLR9 agonist) as an adjuvant. The animals were injected, sacrificed three days after immunization, and OT-II T cell activation was assessed by flow cytometry in single-cell suspensions from different tissues.
By contrast, activated T cells divide and in the process split the fluorescent dye evenly between the two daughter cells resulting in an incremental decrease in fluorescence intensity upon each successive division. Thus, the greater the left shift in CFSE, fluorescence the stronger T cells were activated.

free OVA: free chicken ovalbumin (OVA), mixed with CpG adjuvant
local T cell proliferation in distal lymphoid tissues (brachial lymph node, spleen): only undivided cells or cells with very low CFSE content
